Structures can show the parent of a compound that is named as a salt.
Columns and labels:
[1] = molecular target: T1, acetylcholinesterase (Rattus norvegicus, UniProt P37136); assay: biochemical; design: species or system Male Wistar rats
T1 construct: corpora striata dissected free, weighted and homogenized in 19 volumes; from tissue; host or cells: rat brain corpora striata, crude homogenate
T1 sequence (P37136 32-614): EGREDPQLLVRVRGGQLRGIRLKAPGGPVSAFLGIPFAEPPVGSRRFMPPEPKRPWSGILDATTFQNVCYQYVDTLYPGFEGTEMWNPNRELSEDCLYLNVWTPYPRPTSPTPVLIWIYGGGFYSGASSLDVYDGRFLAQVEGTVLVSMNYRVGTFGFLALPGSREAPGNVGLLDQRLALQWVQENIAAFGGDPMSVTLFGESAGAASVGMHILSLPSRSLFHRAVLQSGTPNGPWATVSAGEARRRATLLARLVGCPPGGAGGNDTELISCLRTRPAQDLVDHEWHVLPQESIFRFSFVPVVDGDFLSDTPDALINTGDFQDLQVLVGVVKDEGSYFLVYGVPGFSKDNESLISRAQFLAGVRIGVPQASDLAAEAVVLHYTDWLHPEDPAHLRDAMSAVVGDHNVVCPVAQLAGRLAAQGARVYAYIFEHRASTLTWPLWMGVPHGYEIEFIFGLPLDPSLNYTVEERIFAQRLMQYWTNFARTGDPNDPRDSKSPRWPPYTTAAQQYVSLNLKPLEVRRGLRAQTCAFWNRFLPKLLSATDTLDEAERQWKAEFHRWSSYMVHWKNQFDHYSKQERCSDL
Protocol: 0.05M Phosphate Buffer (pH 7.2)
A solution of monobasic sodium phosphate monohydrate (6.85 g) in distilled water (100 ml) is added to a solution of dibasic sodium phosphate heptahydrate (13.4 g) and distilled water (100 ml) until a pH of 7.2 was attained. The solution was diluted 1 to 10 with distilled water.
5,5-Dithiobisnitrobenzoic acid in Buffer
The 0.05M Phosphate Buffer (pH 7.2) was added to 5.5-dithiobisnitrobenzoic acid to a total volume of 100 ml, i.e., a quantity sufficient (gs) to 100 ml.
A 2 millimolar stock solution of the test drug is prepared in a quantity sufficient of either acetic acid or dimethyl sulfoxide to volume with 5,5-dithiobisnitrobenzoic acid in Buffer. […]
Male Wistar rats are decapitated, brains rapidly removed, corpora striata dissected free, weighted and homogenized in 19 volumes (approximately 7 mg protein/ml) of 0.05M Phosphate Buffer (pH 7.2) using a Potter-Elvejhem homogenizer. […] Enzyme activity is measured with a Beckman DU-50 spectrophotometer with the following software and instrument settings: • 1. […]
Blank values are determined for each run to control for non-enzymatic hydrolysis of substrate and these values are automatically subtracted by the Kindata program available on kinetics soft-pac module. This program also calculates the rate of absorbance change for each cuvette. […]
IC50 values are calculated from log-probit analysis

[2] = molecular target: clonidine: α2-receptor; assay: in vitro clonidine binding: α2-receptor assay; design: species or system Male Wistar rats; details: rat cortical tissue homogenate; 3 nM 3H-clonidine; 20 minutes at 25° C; log-probit analysis; read-out: Inhibition of clonidine binding activity IC50
Protocol: The following reagents are prepared: 1.
[4-^3H]-Clonidine Hydrochloride (20-30 Ci/mmol) is obtained from New England Nuclear. […] Clonidine hydrochloride is obtained from Boehringer Ingelheim. A stock solution of 0.1 mM clonidine is made up to determine nonspecific binding. This yields a final concentration of 1 µM in the assay (20 µl to 2 ml). […] Test compounds. For most assays, a 1 mM stock solution is made up in a suitable solvent and serially diluted, such that the final concentration in the assay ranges from 10-^5 to 10-^8M.
Male Wistar rats are sacrificed by decapitation and the cortica tissue rapidly dissected. The tissue is homogenized in 50 volumes of 0.05 M Tris buffer, pH 7.7 (buffer 1b) with the Brinkman Polytron, then centrifuged at 40,000 g for 15 minutes. The supernatant is discarded and the pellet rehomogenized in the original volume of 0.05 M Tris buffer, pH 7.7 and recentrifuged as before. The supernate is discarded and the final pellet rehomogenized in 50 volumes of Buffer 2b. This tissue suspension is then stored on ice. The final tissue concentration is 10 mg/ml. […]
Tissue homogenates are incubated for 20 minutes at 25° C with 3 nM ^3H-clonidine and varying drug concentrations, then immediately filtered under reduced pressure on Whatman GF/B filters. […] Ten ml of liquescent counting solution is added to each sample which is then counted by liquid scintillation spectroscopy. […]

| Compound | IC50 [1] [nM] | IC50 [2] [nM] |
| --- | --- | --- |
| C#CCOc1cc(CN2CCCC2)ccc1OC(=O)NC [reference compound] | 3.6 | – |
| C#CCOc1cc(CN2CCN(c3ccccn3)CC2)ccc1OC [4-Methoxy-3-(propargyloxy)-1-[[4-(pyridin-2-yl)piperazin-1-yl]methyl] benzene hydrochloride monohydrate] | 26900 | 34.6 |
